The text below walks through data of paper PMC5731250 (Cell, 2017).

Where two headings read alike, the source gives them in different places.

For series [1], the system named is male C57BL/6J mice. The series can be described thus: animal or person. The series is classed as in vivo. The settings on record: Mus musculus, ip, 1 h, read-out: ED50 (95% confidence intervals) Hot Plate.
In series [2] the test system is male C57BL/6J mice. The series is described as follows: animal or person. The settings on record: Mus musculus, ip, 1 h, read-out: ED50 (95% confidence intervals) Tail Flick. The format is in vivo.
The nature of a further series: in vivo. The conditions noted are these: male, C57BL/6J, mouse, ip.
In a further series the test system is MOR. The settings on record: operational model; ref DeWire et al., 2013; cited from earlier work.

In general, ED50 refers to the midpoint of the dose-response relation. With `CN1CC[C@]23c4c5ccc(O)c4O[C@H]2[C@@H](O)C=C[C@H]3[C@H]1C5` [Morphine], the ED50 with male C57BL/6J mice [1] is 5.9 mg/kg; with male C57BL/6J mice [2], 3.8 mg/kg; in the series “in vivo”, 33 mg/kg; in “in vivo” (ED50 (95% confidence intervals) %O2 Saturation), 79 mg/kg.
With `COc1ccsc1CNCC[C@@]1(c2ccccn2)CCOC2(CCCC2)C1` [TRV-130], in the series with MOR, the “bias factor (G protein signaling over βarrestin pathway)” value was 3.
